Earlier results in patent US20110086102A1, “DELAYED RELEASE COMPOSITIONS” (Teva Pharmaceutical Industries Ltd., priority 2009, published 2011).
Read-outs that look alike come from different tables or passages of the source.

COc1c(C)c2c(c(O)c1C/C=C(\C)CCC(=O)[O-])C(=O)OC2.[Na+] [Mycophenolate sodium, (E)-6-(4-hydroxy-6-methoxy-7-methyl-3-oxo-1,3-dihydro-isobenzofuran-5-yl)-4-methylhex-4-enoic acid sodium salt]
Solubility (0.1N hydrochloric acid): practically insoluble | Solubility (aqueous media at physiological pH): highly soluble
